Key:
Erysiphe polygoni = assay: Powdery mildew on pinto bean, foliar application (ERY POL); type: in vivo; settings: similar procedure as barley (1,000 mg/l); for pest or weed control at 1000 µg/mL: Erysiphe polygoni, read-out: Percent Reduction of Disease, ERY POL
Method in brief: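 Pinto bean plants sprayed with compound emulsion (acetone or inert solvent, TWEEN 20, water) at 1,000 mg/l, or left unsprayed, dried, then inoculated with Erysiphe polygoni spores in a 21° C greenhouse. Disease scored; percent control computed against untreated controls.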

Erysiphe graminis [1] = assay: Powdery mildew of barley, systemic root uptake (BMS); type: in vivo; settings: 45 ml of 250 mg/l, 8 days after inoculation
Method in brief: (§1)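 Pot soil of barley (BMS) and cucumber (CMS) plants was drenched with 45 ml of a 250 mg/l acetone/Tween 20 aqueous emulsion, with untreated plants as controls. Disease was scored on a rating scale that included intermediate grades.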

Erysiphe graminis [2] = assay: Powdery mildew in barley, foliar application (ERY GRA); type: in vivo; settings: foliar, 1,000 mg/l, 8 days after inoculation; for pest or weed control at 1000 µg/mL: Blumeria graminis, foliar, 192 h, read-out: Percent Reduction of Disease, ERY GRA
Method in brief: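 'Robust' barley plants sprayed with acetone/TWEEN 20 aqueous emulsion at 1,000 mg/l, dried, then kept at 21° C in a greenhouse. Inoculated by distributing Erysiphe graminis spores from infected plants. Percent control computed from disease scores vs unsprayed control pots.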

Rhizoctonia solani = assay: Fungal growth inhibition, treated disc on agar (RHI SOL); type: cell-based; settings: disc dipped in 500 mg/l, 29° C.; for inhibition at 500 µg/mL: Rhizoctonia solani, read-out: Percent Growth Inhibition, RHI SOL
Fusarium oxysporum = assay: Fungal growth inhibition, treated disc on agar (FUS OXY); type: cell-based; settings: disc dipped in 500 mg/l, 29° C.; for inhibition at 500 µg/mL: Fusarium oxysporum, read-out: Percent Growth Inhibition, FUS OXY
Septoria nodorum = assay: Fungal growth inhibition, treated disc on agar (SEP NOD); type: cell-based; settings: disc dipped in 500 mg/l, 29° C.; for inhibition at 500 µg/mL: Parastagonospora nodorum, read-out: Percent Growth Inhibition, SEP NOD
Erysiphe cichoracearum = assay: Powdery mildew of cucumber, systemic root uptake (CMS); type: in vivo; settings: 45 ml of 250 mg/l, 8 days after inoculation
Method in brief: as §1

Uromyces phaseoli = assay: Bean rust fungus eradicant test (URO PHA); type: in vivo; settings: pinto bean, eradicant spray 2 days after inoculation, 1,000 mg/l; for pest or weed control at 1000 µg/mL: Uromyces phaseoli, 216 h, read-out: Percent Reduction of Disease, URO PHA
Method in brief: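 Seven-day-old pinto bean plants (Phaseolus vulgaris, primary leaf) were inoculated with 20,000 spores/ml, held 24 h at 99% humidity and 21° C., then sprayed two days post-inoculation with acetone/TWEEN 20 emulsions at 1,000 mg/l. After nine days in a 21° C. greenhouse, disease was scored as percent reduction versus unsprayed controls.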

Row | Compound | pest or weed control at 1000 µg/mL (Erysiphe polygoni) [%] | Percent Reduction of Disease, BMS (Erysiphe graminis [1]) [%] | pest or weed control at 1000 µg/mL (Erysiphe graminis [2]) [%] | inhibition at 500 µg/mL (Rhizoctonia solani) [%] | inhibition at 500 µg/mL (Fusarium oxysporum) [%] | inhibition at 500 µg/mL (Septoria nodorum) [%] | Percent Reduction of Disease, CMS (Erysiphe cichoracearum) [%] | pest or weed control at 1000 µg/mL (Uromyces phaseoli) [%] | Percent Reduction of Disease, ERY POL (Erysiphe polygoni) [%] | Percent Reduction of Disease, ERY GRA (Erysiphe graminis [2]) [%] | Percent Growth Inhibition, RHI SOL (Rhizoctonia solani) [%] | Percent Growth Inhibition, FUS OXY (Fusarium oxysporum) [%] | Percent Growth Inhibition, SEP NOD (Septoria nodorum) [%] | Percent Reduction of Disease, URO PHA (Uromyces phaseoli) [%]
1 | CCCC(C#N)(CCc1ccc(OCC)cc1)c1cccnc1 (stereo not shown) [Compound 46] | 90 | 0 | 92 | 8 | 100 | 100 | 0 | 33 |  |  |  |  |  | 
2 | CCCCC(C#N)(CCc1ccccc1F)c1cccnc1 (stereo not shown) [Compound 74] | 100 | 100 | 100 | 100 | 3 | 100 | 80 | 92 |  |  |  |  |  | 
3 | C=CCC(C#N)(CCc1ccc(OCCCC)cc1)c1cccnc1 (stereo not shown) [Compound 56] | 90 | 0 | 90 | 45 | 60 | 40 | 0 | 0 |  |  |  |  |  | 
4 | N#CC(CCCF)(CCc1ccccc1F)c1cccnc1 (stereo not shown) [Compound 66] | 100 | 100 | 50 | 45 | 100 | 100 | 40 | 70 |  |  |  |  |  | 
5 | CCCC(C#N)(Cc1ccc(C(C)(C)C)cc1)c1cccnc1 (stereo not shown) [Compound 14] | 100 | 0 | 100 | 5 | 25 | 0 | 84 | 33 |  |  |  |  |  | 
6 | Cc1ccc(CCC(C#N)(CCCF)c2cccnc2)cc1 (stereo not shown) [Compound 81] | 100 | 0 | 70 | 5 | 20 | 40 | 0 | 90 |  |  |  |  |  | 
7 | COc1ccc(CCC(C#N)(CC(C)C)c2ccccn2)cc1 (stereo not shown) [Compound 29] |  | 0 |  |  |  |  | 0 |  | 100 | 100 | 70 | 97 | 83 | 100
8 | COCC(C#N)(CCc1ccc(F)cc1)c1cccnc1 (stereo not shown) [Compound 51] | 85 | 90 | 91 | 30 | 100 | 100 | 0 | 20 |  |  |  |  |  | 
9 | CC(C)CCC(C#N)(CCc1ccc(F)cc1)c1cccnc1 (stereo not shown) [Compound 55] |  | 75 |  |  |  |  | 0 |  | 85 | 100 | 50 | 65 | 10 | 0
10 | CCCCC(C#N)(CCCc1ccccc1OC)c1cccnc1 (stereo not shown) [Compound 63] | 100 | 0 | 0 | 5 | 20 | 100 | 0 | 0 |  |  |  |  |  | 
11 | CCCCC(C#N)(CCc1ccccc1)c1ccncc1 (stereo not shown) [Compound 26] | 17 | 0 | 50 | 4 | 59 | 45 | 0 | 0 |  |  |  |  |  | 
12 | C#CCC(C#N)(CCc1ccc(F)cc1)c1cccnc1 (stereo not shown) [Compound 41] | 100 | 0 | 92 | 26 | 30 | 63 | 0 | 0 |  |  |  |  |  | 
13 | CCCCCCC(C#N)(CCc1ccc(OCC)cc1)c1cccnc1 (stereo not shown) [Compound 44] | 90 | 0 | 83 | 30 | 8 | 100 | 0 | 92 |  |  |  |  |  | 
14 | CC(C)(C)c1ccc(CC(C#N)(Cc2ccc(C(C)(C)C)cc2)c2cccnc2)cc1 [B, reference compound] | 0 | 10 | 15 | 15 | 0 | 10 | 50 | 0 |  |  |  |  |  | 
15 | CCCCC(C#N)(CCCc1ccc(OC)cc1)c1cccnc1 (stereo not shown) [Compound 76] | 100 | 0 | 100 | 6 | 50 | 100 | 0 | 67 |  |  |  |  |  | 
16 | COCC(C#N)(CCc1ccccc1)c1cccnc1 (stereo not shown) [Compound 6] | 100 | 100 | 70 | 50 | 93 | 0 | 100 | 50 |  |  |  |  |  | 
17 | CCCCOc1ccc(CCC(C#N)(CCC)c2cccnc2)cc1 (stereo not shown) [Compound 57] | 90 | 0 | 90 | 40 | 55 | 40 | 0 | 0 |  |  |  |  |  | 
18 | CCCCC(C#N)(CCc1ccc(OCCF)cc1)c1cccnc1 (stereo not shown) [Compound 68] | 100 | 0 | 75 | 45 | 100 | 100 | 0 | 50 |  |  |  |  |  | 
19 | CCCCOc1ccc(CCC(C#N)(CC(C)C)c2cccnc2)cc1 (stereo not shown) [Compound 58] | 85 | 0 | 90 | 5 | 40 | 70 | 0 | 0 |  |  |  |  |  | 
20 | CCCCCC(CCc1ccc(F)cc1)(C(N)=O)c1cccnc1 (stereo not shown) [Compound 62] | 100 | 20 | 0 | 5 | 10 | 0 | 20 | 35 |  |  |  |  |  | 
21 | CCCCC(C#N)(CCc1ccc(OCC)cc1)c1cccnc1.Cl (stereo not drawn) [Compound 42, α-butyl-4-ethoxy-α-(3-pyridinyl)-benzenebutanenitrile hydrochloride] |  | 0 |  |  |  |  | 0 |  | 100 | 92 | 32 | 100 | 100 | 33
22 | COc1ccc(CCC(C#N)(CC2CC2)c2cccnc2)cc1 (stereo not shown) [Compound 37] | 92 | 0 | 92 | 13 | 100 | 100 | 0 | 92 |  |  |  |  |  | 
23 | CC(C)=CCC(C#N)(CCc1ccc(F)cc1)c1cccnc1 (stereo not shown) [Compound 47] | 90 | 0 | 70 | 45 | 50 | 100 | 0 | 33 |  |  |  |  |  | 

From patent US5945436A, “Pyridylmethyl nitriles, amides and thioamides useful as fungicides” (Uniroyal Chemical Company, Inc., priority 1997, dated 1999)
